Source: US9121067B2, “Predictive marker for EGFR inhibitor treatment” (Hoffmann-La Roche Inc., priority 2007, dated 2015)

Assays:
[1] = test system: patients with advanced NSCLC following failure of at least one prior chemotherapy regimen; test: open-label Phase II predictive marker study, response assessment by RECIST; type: in vivo, human
Method: Based on the experience from the BR.21 study, benefiting population was defined as either having objective response, or disease stabilization for 12 weeks. Clinical and microarray datasets were analyzed according to a pre-defined statistical plan.
This was an open-label, predictive marker identification Phase II study. The study was conducted in approximately 26 sites in about 12 countries. 264 patients with advanced NSCLC following failure of at least one prior chemotherapy regimen were enrolled over a 12 month period. […] Dose reductions were permitted based on tolerability to drug therapy. Clinical and laboratory parameters were assessed to evaluate disease control and toxicity. Treatment continued until disease progression, unacceptable toxicity or death. The study design is depicted in FIG. 1.
The RECIST (Uni-dimensional Tumour Measurement) criteria were used to evaluate response.
To be assigned a status of CR or PR, changes in tumour measurements must be confirmed by repeated assessments at least 4 weeks apart at any time during the treatment period.
In the case of SD, follow-up measurements must have met the SD criteria at least once after study entry at a minimum interval of 6 weeks.
In the case of maintained SD, follow-up measurements must have met the SD criteria at least once after study entry with maintenance duration of at least 12 weeks.

[2] = patients with cancer receiving 150 mg/day; 500 ng/ml is the average plasma concentration targeted for clinical efficacy; cited from earlier work
[3] = test system: NSCLC patients for whom standard therapy for advanced disease has failed; conditions: single agent versus placebo; cited from earlier work
[4] = 75 patients with qRT-PCR results
[5] = n = 102, benefit = objective response or disease stabilization for >=12 weeks
[6] = patients included in microarray analysis n = 102, oral 150 mg/day

C#Cc1cccc(Nc2ncnc3cc(OCCOC)c(OCCOC)cc23)c1 [Tarceva, erlotinib]
patients with PD [1, 4]: 52% | patients with SD [1, 4]: 31% | patients with partial response (PR) [1, 4]: 5% | Clinical Benefit NO, n (%) [1, 5]: 81 (79.4%) | Clinical Benefit YES, n (%) [1, 5]: 21 (20.6%) | Best Response PD, n (%) [1, 6]: 49 (48.0%) | Best Response PR, n (%) [1, 6]: 6 (5.9%) | Best Response SD, n (%) [1, 6]: 31 (30.4%) | drug levels in plasma [2]: > 500 ng/mL | survival [3]: significantly prolongs and improves the survival
